Experimental data: ChEMBL document CHEMBL1201862, “PubChem BioAssay data set” (2004)
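Test compounds were applied to cells in 96-well plates for 48 hours at 5 doses. At the GI50, growth is halved.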 The source made the active and inactive calls. Rule as the data show it: active = GI50 up to about 1.1 µM and inactive = higher.

Tests used:
Assay in all cases: NCI-60 cell line screen, 48 h
[1] = tested on: 786-0
[2] = tested on: A498
[3] = tested on: A549
[4] = tested on: ACHN
[5] = tested on: BT-549
[6] = tested on: CAKI-1
[7] = tested on: CCRF-CEM
[8] = tested on: COLO 205
[9] = tested on: DU-145
[10] = tested on: EKVX
[11] = tested on: HCC 2998
[12] = tested on: HCT-116
[13] = tested on: HCT-15
[14] = tested on: HL-60
[15] = tested on: HOP-62
[16] = tested on: HOP-92
[17] = tested on: HT-29
[18] = tested on: Hs-578T
[19] = tested on: IGROV-1
[20] = tested on: K562
[21] = tested on: KM12
[22] = tested on: LOX IMVI
[23] = tested on: M14
[24] = tested on: MCF7
[25] = tested on: MDA-MB-231
[26] = tested on: MDA-MB-435
[27] = tested on: MDA-N
[28] = tested on: MOLT-4
[29] = tested on: Malme-3M
[30] = tested on: NCI-H226
[31] = tested on: NCI-H23
[32] = tested on: NCI-H460
[33] = tested on: NCI-H522
[34] = tested on: NCI/ADR-RES
[35] = tested on: OVCAR-3
[36] = tested on: OVCAR-4
[37] = tested on: OVCAR-5
[38] = tested on: OVCAR-8
[39] = tested on: PC-3
[40] = tested on: RPMI-8226
[41] = tested on: RXF 393
[42] = tested on: SF-268
[43] = tested on: SF-295
[44] = tested on: SF-539
[45] = tested on: SK-MEL-28
[46] = tested on: SK-MEL-2
[47] = tested on: SK-MEL-5
[48] = tested on: SK-OV-3
[49] = tested on: SN12C
[50] = tested on: SNB-19
[51] = tested on: SNB-75
[52] = tested on: SR
[53] = tested on: SW-620
[54] = tested on: T47D
[55] = tested on: TK-10
[56] = tested on: U-251
[57] = tested on: UACC-257
[58] = tested on: UACC-62
[59] = tested on: UO-31
[60] = tested on: DLD-1
[61] = tested on: DMS-114
[62] = tested on: DMS-273
[63] = tested on: HOP-18
[64] = tested on: LXFL 529
[65] = tested on: M19-MEL

Measured: GI50

O=C1Nc2ccccc2/C1=N/NS(=O)(=O)c1ccc(C(=O)O)cc1
> 100 µM: [13]
inactive: [1] > 100 µM | [2] > 100 µM | [3] > 100 µM | [4] > 100 µM | [5] > 100 µM | [6] > 100 µM | [7] > 100 µM | [8] > 100 µM | [9] > 100 µM | [10] 74.5 µM | [11] > 100 µM | [12] > 100 µM | [14] > 100 µM | [15] > 100 µM | [16] > 100 µM | [17] > 100 µM | [18] > 100 µM | [19] > 100 µM | [20] > 100 µM | [21] > 100 µM | [22] > 100 µM | [23] > 100 µM | [24] > 100 µM | [25] > 100 µM | [26] > 100 µM | [27] > 100 µM | [28] > 100 µM | [29] > 100 µM | [30] > 100 µM | [31] > 100 µM | [32] > 100 µM | [33] > 100 µM | [34] > 100 µM | [35] > 100 µM | [36] > 100 µM | [37] > 100 µM | [38] > 100 µM | [39] > 100 µM | [40] > 100 µM | [41] > 100 µM | [42] > 100 µM | [43] > 100 µM | [44] > 100 µM | [45] > 100 µM | [46] > 100 µM | [47] > 100 µM | [48] > 100 µM | [49] > 100 µM | [50] > 100 µM | [51] > 100 µM | [52] > 100 µM | [53] > 100 µM | [54] > 100 µM | [55] > 100 µM | [56] > 100 µM | [57] > 100 µM | [58] > 100 µM | [59] > 100 µM

Cc1nc2ccccc2c(=O)n1NC(=S)Nc1ccccc1
inactive: [1] > 100 µM | [2] > 100 µM | [3] > 100 µM | [4] > 100 µM | [6] > 100 µM | [7] > 100 µM | [8] > 100 µM | [60] > 100 µM | [61] 71.1 µM | [62] > 100 µM | [12] > 100 µM | [14] > 100 µM | [63] > 100 µM | [15] > 100 µM | [16] 85.1 µM | [17] > 100 µM | [19] > 100 µM | [20] > 100 µM | [21] > 100 µM | [22] > 100 µM | [64] > 100 µM | [23] > 100 µM | [65] > 100 µM | [28] > 100 µM | [29] > 100 µM | [30] 37.7 µM | [31] 84.3 µM | [32] > 100 µM | [33] > 100 µM | [36] 91.2 µM | [37] > 100 µM | [38] > 100 µM | [40] > 100 µM | [41] 75.7 µM | [42] > 100 µM | [43] > 100 µM | [44] > 100 µM | [45] > 100 µM | [46] > 100 µM | [47] > 100 µM | [48] > 100 µM | [49] > 100 µM | [51] 4.99 µM | [52] > 100 µM | [53] > 100 µM | [55] > 100 µM | [56] > 100 µM | [57] > 100 µM | [58] > 100 µM | [59] 88.9 µM
> 100 µM: [13]
